Like-named read-outs stand apart in the source and are kept apart here.
Columns and labels:
human NNMT = target: T1, human NNMT (Homo sapiens, UniProt P40261); experiment: hNNMT enzymatic modulation, RapidFire SPE LC/MS assay (Lilly); assay type: biochemical
T1 sequence (P40261 1-264): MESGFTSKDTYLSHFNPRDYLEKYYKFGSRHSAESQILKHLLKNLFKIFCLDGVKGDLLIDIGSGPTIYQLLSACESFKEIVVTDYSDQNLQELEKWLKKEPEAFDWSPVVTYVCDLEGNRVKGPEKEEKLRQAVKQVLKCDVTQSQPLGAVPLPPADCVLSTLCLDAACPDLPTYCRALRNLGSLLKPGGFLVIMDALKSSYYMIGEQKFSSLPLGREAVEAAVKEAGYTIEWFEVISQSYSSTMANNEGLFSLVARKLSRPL

DOT1L = target: T2, DOT1L (Homo sapiens, UniProt Q8TEK3); experiment: Methyltransferase Hot Spot radioisotope assay, DOT1L; assay type: biochemical; settings: 10-dose, threefold dilution; CC-410 from 300 μM, control from 100 μM; substrate Nucleosomes
T2 construct: purchased Reaction Biology Corporation
T2 sequence (Q8TEK3 whole entry, species assumed): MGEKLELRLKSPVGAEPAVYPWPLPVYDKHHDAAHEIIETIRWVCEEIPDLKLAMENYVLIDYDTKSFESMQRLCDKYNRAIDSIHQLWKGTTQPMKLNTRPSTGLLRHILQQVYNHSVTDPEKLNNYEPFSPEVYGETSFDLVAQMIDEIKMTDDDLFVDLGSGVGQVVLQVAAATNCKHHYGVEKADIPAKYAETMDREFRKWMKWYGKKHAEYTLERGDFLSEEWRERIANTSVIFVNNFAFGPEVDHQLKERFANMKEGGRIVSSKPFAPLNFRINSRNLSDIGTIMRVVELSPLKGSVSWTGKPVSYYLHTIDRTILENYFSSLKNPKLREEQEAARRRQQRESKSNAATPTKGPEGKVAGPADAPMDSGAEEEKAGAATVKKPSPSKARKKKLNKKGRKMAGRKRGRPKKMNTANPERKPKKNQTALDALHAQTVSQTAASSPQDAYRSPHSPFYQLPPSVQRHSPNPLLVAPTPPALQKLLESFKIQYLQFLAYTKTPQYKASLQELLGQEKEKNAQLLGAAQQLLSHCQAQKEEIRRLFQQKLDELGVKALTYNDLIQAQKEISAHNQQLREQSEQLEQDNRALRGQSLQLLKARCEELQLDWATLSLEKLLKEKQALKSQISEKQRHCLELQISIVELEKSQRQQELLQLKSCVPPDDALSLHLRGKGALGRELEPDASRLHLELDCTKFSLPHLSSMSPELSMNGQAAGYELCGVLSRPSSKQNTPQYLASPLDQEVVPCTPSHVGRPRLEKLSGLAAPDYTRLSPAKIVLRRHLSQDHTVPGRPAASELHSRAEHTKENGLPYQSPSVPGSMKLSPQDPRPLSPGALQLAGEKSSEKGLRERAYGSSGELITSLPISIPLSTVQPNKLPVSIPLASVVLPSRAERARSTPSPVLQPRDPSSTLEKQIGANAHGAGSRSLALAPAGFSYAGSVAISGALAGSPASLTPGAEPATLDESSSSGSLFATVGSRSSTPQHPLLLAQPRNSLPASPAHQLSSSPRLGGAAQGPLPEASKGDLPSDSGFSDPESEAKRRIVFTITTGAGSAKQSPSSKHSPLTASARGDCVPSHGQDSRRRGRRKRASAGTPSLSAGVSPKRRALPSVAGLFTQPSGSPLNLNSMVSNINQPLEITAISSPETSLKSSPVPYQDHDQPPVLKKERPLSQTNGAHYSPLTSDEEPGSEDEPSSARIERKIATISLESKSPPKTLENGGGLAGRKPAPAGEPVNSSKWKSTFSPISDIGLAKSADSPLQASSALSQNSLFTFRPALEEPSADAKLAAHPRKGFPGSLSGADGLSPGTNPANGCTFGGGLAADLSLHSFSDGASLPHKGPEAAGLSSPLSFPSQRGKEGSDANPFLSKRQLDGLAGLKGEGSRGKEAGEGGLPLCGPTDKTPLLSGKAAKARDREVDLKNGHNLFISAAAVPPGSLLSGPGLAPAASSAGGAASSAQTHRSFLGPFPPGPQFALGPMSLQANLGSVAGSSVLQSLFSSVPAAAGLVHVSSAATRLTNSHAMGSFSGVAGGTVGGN
Procedure: (§1) CC-410 was screened in biochemical assays for activity against a panel of 11 methyltransferases (MT) by using the radioisotope (3H-AdoMet) based MT Hot Spot Assay. All the assays were performed by Reaction Biology Corporation (RBC, Malven, PA, USA). Briefly CC-410 was incubated with the selected MTs, corresponding substrates, and radiolabeled SAM (S-Adenosyl-L-[methyl-3 H]methionine). The specific MTs assessed, and the corresponding substrates are as follows: DNMT1- Poly dl-dC, DNMT3a- Lambda DNA, DNMT3b- Lambda DNA, DOT1L- Nucleosomes, EZH2 Complex- Core Histone, METTL21A- HSPA8-[CTD], NRMT1- RCC1, PRMT3- Histone H4, PRMT5/MEP50- Histone H2A, SET1b -Core Histone Complex and SMYD2- Nucleosomes. Reaction mixtures were incubated and spotted onto filter papers, which were then washed to remove unreacted SAM, leaving the bound radiolabeled product. Detection of the radiolabeled, methylated product was performed via a nanoliter-scale radioisotope filter binding platform. […] For each assay, control compounds were included as positive controls for enzyme function and assay reproducibility. […] IC50 was calculated by non-linear least square fitting dose–response curve.

METTL21A = METTL21A (Homo sapiens, UniProt Q8WXB1); experiment: Methyltransferase Hot Spot radioisotope assay, METTL21A; assay type: biochemical; settings: 10-dose, threefold dilution; CC-410 from 300 μM, control from 100 μM; substrate HSPA8-[CTD]
METTL21A, sequence (Q8WXB1 whole entry, species assumed): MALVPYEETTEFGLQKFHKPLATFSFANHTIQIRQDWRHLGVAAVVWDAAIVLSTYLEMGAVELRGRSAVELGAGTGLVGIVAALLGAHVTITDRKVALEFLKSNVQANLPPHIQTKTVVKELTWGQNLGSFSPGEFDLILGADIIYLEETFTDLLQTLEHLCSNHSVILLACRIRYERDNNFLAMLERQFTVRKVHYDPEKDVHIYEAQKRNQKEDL
Procedure: as §1, with “The specific MTs assessed, and the corresponding substrates are as follows: DNMT1- Poly dl-dC, DNMT3a- Lambda DNA, DNMT3b- Lambda DNA, DOT1L- Nucleosomes, EZH2 Complex- Core Histone, METTL21A- HSPA8-[CTD], NRMT1- RCC1, PRMT3- Histone H4, PRMT5/MEP50- Histone H2A, SET1b -Core Histone Complex and SMYD2- Nucleosomes.” left out

NRMT1 = target: T3, NRMT1 (Homo sapiens, UniProt Q9BV86); experiment: Methyltransferase Hot Spot radioisotope assay, NRMT1; assay type: biochemical; settings: 10-dose, threefold dilution; CC-410 from 300 μM, control from 100 μM; substrate RCC1
T3 sequence (Q9BV86 1-223): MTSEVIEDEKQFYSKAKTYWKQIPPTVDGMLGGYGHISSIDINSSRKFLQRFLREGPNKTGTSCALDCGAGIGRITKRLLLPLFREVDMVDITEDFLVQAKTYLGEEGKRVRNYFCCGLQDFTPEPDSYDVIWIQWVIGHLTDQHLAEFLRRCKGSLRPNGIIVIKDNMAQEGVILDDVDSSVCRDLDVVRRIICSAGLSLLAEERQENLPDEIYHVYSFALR
Procedure: as §1

PRMT5/MEP50 = target: T4, PRMT5/MEP50 (Homo sapiens, UniProt O14744); experiment: Methyltransferase Hot Spot radioisotope assay, PRMT5/MEP50; assay type: biochemical; settings: 10-dose, threefold dilution; CC-410 from 300 μM, control from 100 μM; substrate Histone H2A
T4 construct: purchased Reaction Biology Corporation
T4 sequence (O14744 whole entry, species assumed): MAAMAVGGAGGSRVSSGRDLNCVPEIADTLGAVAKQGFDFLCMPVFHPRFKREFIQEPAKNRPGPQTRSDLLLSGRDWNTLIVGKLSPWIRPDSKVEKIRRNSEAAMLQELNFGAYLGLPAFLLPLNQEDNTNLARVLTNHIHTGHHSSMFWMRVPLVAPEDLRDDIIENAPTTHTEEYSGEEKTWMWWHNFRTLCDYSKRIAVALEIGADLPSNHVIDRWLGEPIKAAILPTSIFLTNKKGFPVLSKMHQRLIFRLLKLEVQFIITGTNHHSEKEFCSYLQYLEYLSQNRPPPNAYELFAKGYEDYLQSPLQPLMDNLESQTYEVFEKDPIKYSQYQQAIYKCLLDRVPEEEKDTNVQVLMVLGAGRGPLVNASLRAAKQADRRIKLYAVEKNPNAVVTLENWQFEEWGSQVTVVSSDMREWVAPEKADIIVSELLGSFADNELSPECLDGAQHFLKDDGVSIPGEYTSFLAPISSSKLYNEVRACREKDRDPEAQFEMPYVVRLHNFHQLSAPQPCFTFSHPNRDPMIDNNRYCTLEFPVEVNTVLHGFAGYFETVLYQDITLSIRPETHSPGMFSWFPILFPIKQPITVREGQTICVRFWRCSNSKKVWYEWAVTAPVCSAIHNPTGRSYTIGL
T4 sequence (Q9BQA1 whole entry partner, species assumed): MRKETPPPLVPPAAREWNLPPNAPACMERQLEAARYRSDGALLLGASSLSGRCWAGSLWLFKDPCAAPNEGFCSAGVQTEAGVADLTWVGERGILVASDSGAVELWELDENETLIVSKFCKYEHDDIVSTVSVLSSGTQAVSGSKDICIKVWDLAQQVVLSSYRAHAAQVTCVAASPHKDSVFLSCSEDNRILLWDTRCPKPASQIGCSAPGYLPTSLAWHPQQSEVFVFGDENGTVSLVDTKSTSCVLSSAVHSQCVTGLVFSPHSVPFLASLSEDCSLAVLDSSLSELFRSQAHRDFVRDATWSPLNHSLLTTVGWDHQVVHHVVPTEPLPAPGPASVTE
Procedure: as §1

SET1b Complex = target: T5, SET1b Complex (Homo sapiens, UniProt Q9UPS6); experiment: Methyltransferase Hot Spot radioisotope assay, SET1b Complex; assay type: biochemical
T5 construct: purchased Reaction Biology Corporation
Procedure: as §1

C3H10T1/2 cells = experiment: Oil Red-O staining of adipocyte differentiation, C3H10T1/2; assay type: cell-based, mouse; settings: 25 µM, first 48 h of DIM induction or throughout the period of differentiation
Procedure: 3T3-L1 Mouse Embryonic Fibroblasts were purchased from American Type Culture Collection (ATCC CL-173). The cells were propagated and maintained in Dulbecco’s modified Eagle’s medium (DMEM, Gibco) supplemented with 10% calf serum (FCS) at 37 °C in 5% CO2 atmosphere. Subconfluents cells were expanded and utilized for the subsequent experiments at the passages 3–6. To induce differentiation, 2-day post-confluent 3T3-L1 pre-adipocytes were cultured for 48 h with DIM (DMEM supplemented with 10% fetal bovine serum (FBS), 1.0 µM Dexamethasone (G. Biosciences), 1.5 mg/mL Insulin (Sigma) and 0.5 mM IBMX (Sigma). Two days after induction the DIM medium was removed and the cells were maintained in DMED supplemented with 10% FBS and […] Insulin, which was replaced every 48 h, until the cells became fully differentiated (8–10 days after induction). C3H10T1/2 cells were purchased from American Type Culture Collection (ATCC, clone 8, CCL-226, were grown and induced to differentiate following the same protocol, with cell cultures < 3 passages. Oil Red-O staining was used as previously described. Briefly, cells were fixed for 30 min with 4% formaldehyde, stained with filtered Oil Red solution (0.2% oil red in 40% 2-propanol) and washed 5 times with distilled water. […] The dye was eluted with 100% 2-propanol and quantified spectroscopically at 510 nm (Synergy HT, Bio-Tek).

Compound: COC(=O)CCC(C)C1CCC2C3C(N)CC4CC(OC(C)=O)CCC4(C)[C@H]3CC(N)C12C (stereo in doubt) [CC-410, Methyl-(4S)-4-((3S,5S,7S,8S,10R,12R,13S,14R,17S)-3-acetoxy-7,12-diamino-10,13-dimethylhexadecahydro-1H-cyclopenta[a]phenanthren-17-yl) pentanoate]
- IC50 (human NNMT; MNAM product readout, LC/MS, Fig. 4B, read-out: hNNMT MNAN Rel IC50): 1640 nM
- IC50 (human NNMT; automated solid-phase extraction and LC-MS, read-out: IC50 against human NNMT): 1600 nM
- IC50 (human NNMT; hNNMT SAH Rel IC50, SAH product readout, LC/MS, Fig. 4B): 1700 nM
- IC50* (M) DOT1L (DOT1L): no inhibition or compound activity that could not be fitted to an IC50 curve
- IC50* (M) METTL21A (METTL21A): no inhibition or compound activity that could not be fitted to an IC50 curve
- IC50* (M) NRMT1 (NRMT1): no inhibition or compound activity that could not be fitted to an IC50 curve
- IC50* (M) PRMT5/MEP50 (PRMT5/MEP50): no inhibition or compound activity that could not be fitted to an IC50 curve
- IC50 (SET1b Complex; 10-dose, threefold dilution, CC-410 from 300 μM, control from 100 μM, substrate Core Histone, read-out: IC50* (M) SET1b Complex): 0.000121 M
- IC50 (SET1b Complex; text and Fig. 4D curve fit, read-out: IC50 for SET1b Complex): 0.00012 M
- effect on adipogenesis (C3H10T1/2 cells): effectively inhibit adipogenesis

Source: publication PMC10202359, “Nicotinamide N-methyltransferase (NNMT) regulates the glucocorticoid signaling pathway during the early phase of adipogenesis” (Scientific Reports, 2023)
